This test deals with MDA-MB-435S human breast cancer cells. Kind of test: MTT assay, proliferation of MDA-MB-435S cells. It counts as cell-based. The note with it: Homo sapiens, 72 h, read-out: Cell Survival Rate IC50. On the procedure: The experiments for evaluating the antineoplasmic activities of the compounds according to the present invention were carried out, and the compounds' antineoplasmic activities in vitro was evaluated by determining the inhibitory activities thereof against the proliferation of MDA-MB-435S human breast cancer cells.
The antineoplasmic activities were determined by using the MTT assay, which is based on the metabolic reduction of 3-(4,5-dimethylthylthiazol-2-yl)-2,5-diphenyl tetrazolium bromide (MTT). The dehydrogenases, which are related to NADP (niacinamide adenine dinucleotide phosphate, coenzyme) and present in mitochondrions of living cells, can reduce the yellow MTT to an insoluble, dark purple formazan. […] After the formazan is dissolved in DMSO, the optical density is determined on an ELISA Reader at the wavelength of 550/690 nm.
The adhered MDA-MB-4355 cells in logarithmic growth phase, were digested by 0.05% trypsogen, counted and formulated into a cell suspension with a medium. After counted, the suspension was inoculated on a 96-well plate with 3000 cells and 100 μl medium per well. The inoculated 96-well plate was placed overnight in an incubator at 37 with 5% CO2 to allow the cells to adhere to the wall. On the next day, the administration of the drugs started. Before the administration, into some of the control wells, each was added 20 μl of the MTT solution (5 mg/ml) without removing the medium therein. After incubated for 3 h, the absorption at A550/690 was recorded as the initial cell concentration. For the drug wells, each was added into 100 μl of medium containing 2 μl of compound solution. For the control wells which use DMSO as background control, each was also added into 100 μl of medium containing 2 μl of DMSO. In addition, each experiment was carried out with adriamycin as the positive control. Subsequently, the 96-well plate was incubated in an incubator at 37 with 5% CO2 for 72 h. each compound was tested in triplicate wells (6 μl of compound solution was put into a sterilized eppendorf centrifuge tube, then 300 μl of medium was added and mixed well, and the mixture was distributed into 3 wells respectively), and at six concentrations which form a gradient. 3 days (72 h) later, 40 μl of MTT solution (5 mg/ml) was put into each well directly (without sucking off the medium therein), and the plate was incubated in the incubator for 3 h and then taken out. The liquid in each well was sucked off, and then 100 μl of DMSO was put into each well to dissolve the crystal completely with slight shake. The absorbance of the solution in each well was determined at 550/690 nm on an ELISA Reader as the cell density after treated with the compound. The growth inhibition of compound against breast cancer cells MDA-MB-435S was represented by the cell survival rate, and IC50 was determined from the profile of cell survival rate vs compound concentration. The calculating formula was as follows: cell survival rate=[(cells+compound)A550/690/(cells+compound vector DMSO)A550/690]×100%
A general note: Tetrazolium dyes change colour on reduction, which living cells bring about.

SMILES strings stand for the structures.

Consider 38 compounds from patent US8470763B2, “Alpha-amino-N-substituted amides, pharmaceutical composition containing them and uses thereof” (Shanghai Institute of Materia Medica Chinese Academy of …, priority 2007, dated 2013).

In general, IC50 refers to the point on the concentration scale where inhibition reaches its midpoint.

For the compound `C=CCNC(=O)[C@H](C)NC(=O)[C@H](OC)[C@H](O)[C@@H](O)[C@H](O)/C=C/C(C)(C)C` [Compound L372], the 50% inhibitory concentration (IC50) turned out to be 3.53 µM. For `CO[C@@H](C(=O)N[C@@H](C)C(=O)NCCO)[C@H](O)[C@@H](O)[C@H](O)/C=C/C(C)(C)C` [Compound L376] the value was 5.44 µM; for `C=CCNC(=O)[C@@H](NC(=O)[C@H](OC)[C@H](O)[C@@H](O)[C@H](O)/C=C/C(C)(C)C)C(C)C` [Compound L400], 9.68 µM; for `CO[C@@H](C(=O)N[C@@H](CC(C)C)C(=O)NCCO)[C@H](O)[C@@H](O)[C@H](O)/C=C/C(C)(C)C` [Compound L418b], 1.5 µM.

On to `CO[C@@H](C(=O)N[C@@H](C)C(=O)NCCOC(C)C)[C@H](O)[C@@H](O)[C@H](O)/C=C/C(C)(C)C` [Compound L418c], for which the 50% inhibitory concentration (IC50) turned out to be 13.9 µM. For `C=CCNC(=O)[C@H](CCSC)NC(=O)[C@H](OC)[C@H](O)[C@@H](O)[C@H](O)/C=C/C(C)(C)C` [Compound L432] the value was 4.57 µM. For `CO[C@@H](C(=O)N[C@@H](C)C(=O)NCCOCC(C)C)[C@H](O)[C@@H](O)[C@H](O)/C=C/C(C)(C)C` [Compound L432a] the value was 40 µM. Under `CO[C@@H](C(=O)N[C@@H](C)C(=O)NCCCOC(C)C)[C@H](O)[C@@H](O)[C@H](O)/C=C/C(C)(C)C` [Compound L432b] stands 21.6 µM; under `CO[C@@H](C(=O)N[C@@H](C)C(=O)NCCOC(=O)C1CC1)[C@H](O)[C@@H](O)[C@H](O)/C=C/C(C)(C)C` [Compound L444g], 6.07 µM. Take `CO[C@@H](C(=O)N[C@@H](C)C(=O)NCCOC(=O)C(C)C)[C@H](O)[C@@H](O)[C@H](O)/C=C/C(C)(C)C` [Compound L446a]: the 50% inhibitory concentration (IC50) came to 7.06 µM. Under `CO[C@@H](C(=O)N[C@@H](C)C(=O)NCCCOCC(C)C)[C@H](O)[C@@H](O)[C@H](O)/C=C/C(C)(C)C` [Compound L446b] stands 9.56 µM. Under `CO[C@@H](C(=O)N[C@@H](Cc1ccccc1)C(=O)NCCO)[C@H](O)[C@@H](O)[C@H](O)/C=C/C(C)(C)C` [Compound L452] stands 5.25 µM; under `CO[C@@H](C(=O)N[C@@H](C)C(=O)NCCOC(=O)C1CCC1)[C@H](O)[C@@H](O)[C@H](O)/C=C/C(C)(C)C` [Compound L458], 0.89 µM; under `CO[C@@H](C(=O)N[C@@H](C)C(=O)NCCOC(=O)C(C)(C)C)[C@H](O)[C@@H](O)[C@H](O)/C=C/C(C)(C)C` [Compound L460], 3.38 µM. Under `CO[C@@H](C(=O)N[C@@H](C)C(=O)NCCOCc1ccccc1)[C@H](O)[C@@H](O)[C@H](O)/C=C/C(C)(C)C` [Compound L466] stands about 10 µM; under `CO[C@@H](C(=O)N[C@@H](C)C(=O)NCC(=O)NC1CCCCC1)[C@H](O)[C@@H](O)[C@H](O)/C=C/C(C)(C)C` [Compound L471], 4.79 µM; under `C#CCCCC(=O)OCCNC(=O)[C@H](C)NC(=O)[C@H](OC)[C@H](O)[C@@H](O)[C@H](O)/C=C/C(C)(C)C` [Compound L471b], 0.11 µM.

Turning to `CO[C@@H](C(=O)N[C@@H](C)C(=O)NCCOC(=O)C1CCCC1)[C@H](O)[C@@H](O)[C@H](O)/C=C/C(C)(C)C` [Compound L472-3], the IC50 is 0.72 µM. For the compound `CO[C@@H](C(=O)N[C@@H](C)C(=O)NCC(=O)OC1CCCCC1)[C@H](O)[C@@H](O)[C@H](O)/C=C/C(C)(C)C` [Compound L472-4], the half-inhibitory concentration (IC50) was 1.54 µM. Under `CO[C@@H](C(=O)N[C@@H](C)C(=O)NCCCOC1CCCCC1)[C@H](O)[C@@H](O)[C@H](O)/C=C/C(C)(C)C` [Compound L472] stands over 2.5 µM; under `CO[C@@H](C(=O)N[C@@H](C)C(=O)NCCOC(=O)[C@H]1CCCO1)[C@H](O)[C@@H](O)[C@H](O)/C=C/C(C)(C)C` [Compound L474], 8.86 µM; under `CO[C@@H](C(=O)N[C@@H](C)C(=O)NCCOC(=O)c1ccccc1)[C@H](O)[C@@H](O)[C@H](O)/C=C/C(C)(C)C` [Compound L480], 2.37 µM.

Regarding `CO[C@@H](C(=O)N[C@@H](C)C(=O)NCCNC(=O)C1CCCCC1)[C@H](O)[C@@H](O)[C@H](O)/C=C/C(C)(C)C` [Compound L485], the IC50 was determined as 3.15 µM. For `C=CCNC(=O)[C@H](CCC(=O)OC(C)(C)C)NC(=O)[C@H](OC)[C@H](O)[C@@H](O)[C@H](O)/C=C/C(C)(C)C` [Compound L486e] the value was 2.85 µM; for `CO[C@@H](C(=O)N[C@@H](Cc1c[nH]c2ccccc12)C(=O)NCCO)[C@H](O)[C@@H](O)[C@H](O)/C=C/C(C)(C)C` [Compound L491], 5.13 µM; for `CO[C@@H](C(=O)N[C@@H](C)C(=O)NCC(C)OC(=O)C1CCCCC1)[C@H](O)[C@@H](O)[C@H](O)/C=C/C(C)(C)C` (some centres unmarked) [Compound L500a], 0.8 µM.

Turning to `CO[C@@H](C(=O)N[C@@H](C)C(=O)NCCCOC(=O)C1CCCCC1)[C@H](O)[C@@H](O)[C@H](O)/C=C/C(C)(C)C` [Compound L500b], the 50% inhibitory concentration (IC50) came to 0.14 µM.

Take `CO[C@@H](C(=O)N[C@@H](C)C(=O)NCCOC(=O)CC1CCCCC1)[C@H](O)[C@@H](O)[C@H](O)/C=C/C(C)(C)C` [Compound L500c]: the IC50 was 1.93 µM. Consider `CCCCC(CC)C(=O)OCCNC(=O)[C@H](C)NC(=O)[C@H](OC)[C@H](O)[C@@H](O)[C@H](O)/C=C/C(C)(C)C` (some centres unmarked) [Compound L502], for which the IC50 came to 2.55 µM. Under `CO[C@@H](C(=O)N[C@H](C(=O)NCCOC(=O)C1CCCCC1)C(C)C)[C@H](O)[C@@H](O)[C@H](O)/C=C/C(C)(C)C` [Compound L514c] stands 2.22 µM; under `CO[C@@H](C(=O)N[C@@H](C)C(=O)NCC1CC(Cc2ccccc2)C(=O)O1)[C@H](O)[C@@H](O)[C@H](O)/C=C/C(C)(C)C` (some centres unmarked) [Compound L521], 25.2 µM. For `CCC(C)[C@H](NC(=O)[C@H](OC)[C@H](O)[C@@H](O)[C@H](O)/C=C/C(C)(C)C)C(=O)NCCOC(=O)C1CCCCC1` (some centres unmarked) [Compound L528a] the value was 3.24 µM; for `CO[C@@H](C(=O)N[C@@H](CC(C)C)C(=O)NCCOC(=O)C1CCCCC1)[C@H](O)[C@@H](O)[C@H](O)/C=C/C(C)(C)C` [Compound L528b], 2.62 µM. Under `CCCC[C@H](NC(=O)[C@H](OC)[C@H](O)[C@@H](O)[C@H](O)/C=C/C(C)(C)C)C(=O)NCCOC(=O)C1CCCCC1` [Compound L528c] stands 2.91 µM; under `CO[C@@H](C(=O)N[C@@H](C)C(=O)NCCOC(=O)OCCCc1ccccc1)[C@H](O)[C@@H](O)[C@H](O)/C=C/C(C)(C)C` [Compound L538b], 0.76 µM; under `C=CCNC(=O)[C@H](Cc1cn(COCc2ccccc2)cn1)NC(=O)[C@H](OC)[C@H](O)[C@@H](O)[C@H](O)/C=C/C(C)(C)C` [Compound L558b], 1.9 µM. As to `CO[C@@H](C(=O)N[C@@H](C)C(=O)NCCOC(=O)CCCCCCCCCN=[N+]=[N-])[C@H](O)[C@@H](O)[C@H](O)/C=C/C(C)(C)C` [Compound L572], the IC50 came to 0.11 µM. In the case of `CO[C@@H](C(=O)N[C@@H](CCCCNC(=O)OC(C)(C)C)C(=O)NCCOC(=O)C1CCCCC1)[C@H](O)[C@@H](O)[C@H](O)/C=C/C(C)(C)C` [Compound L643], the IC50 was determined as 1.56 µM.
